Measured values: patent US12265082B2, “Detecting microbial infection in wounds” (SYNOVO GMBH, priority 2016, dated 2025)
Residues, ends and D or L forms follow the SMILES beside them. *: point of attachment. X5 = 4‑(N-piperazino)phenyl‑bis(4-dimethylaminophenyl)carbenium, CN(C)c1ccc([C+](c2ccc(N(C)C)cc2)c2ccc(N3CCN(*)CC3)cc2)cc1; X9 = CN(C)c1ccc([C+](c2ccc(N(C)C)cc2)c2ccc(N3CCN(*)CC3)cc2)cc1

Assays:
[1] = target: T1, human elastase from leucocytes (Homo sapiens, UniProt P08246); assay: Enzyme hydrolysis of substrates by human elastase from leucocytes, cleavage products by ion trap MS; details: mass peak at m/z=484
T1 sequence (P08246 30-267): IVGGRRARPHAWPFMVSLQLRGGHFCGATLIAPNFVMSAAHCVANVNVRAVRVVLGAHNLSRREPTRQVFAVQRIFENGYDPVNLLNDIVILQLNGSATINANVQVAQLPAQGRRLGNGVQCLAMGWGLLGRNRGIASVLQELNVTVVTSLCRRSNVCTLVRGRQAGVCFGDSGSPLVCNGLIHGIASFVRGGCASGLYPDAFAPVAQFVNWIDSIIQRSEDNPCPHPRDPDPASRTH
Procedure: (§1) Appearance of the assay mixture was either a clear solution, a suspension or a gel, depending on the properties of the enzyme substrate. Incubation was performed at 37° C. After 3 and 20 h, 10 μL samples were taken and the enzyme was denatured by addition of 10 μL MeOH to each sample. After mixing and incubation at −20° C. for 20 min the samples were centrifuged at 13.000 rpm for 10 min. Each assay included a control without enzyme, containing 1 mg/mL to 5 mg/mL substrate and analysis was performed in the same way and in parallel to the enzyme-containing assays. The supernatant after MeOH precipitation was analyzed via ion trap MS, either [M+H]+ or [M−H]−, depending on the properties of the molecule and the expected cleavage products.

[2] = target: pancreatic porcine elastase (Sus scrofa, UniProt P00772); assay: Enzyme hydrolysis of substrates by pancreatic porcine elastase, cleavage products by ion trap MS; details: mass peak at m/z=484
Sequence of pancreatic porcine elastase (P00772 27-266): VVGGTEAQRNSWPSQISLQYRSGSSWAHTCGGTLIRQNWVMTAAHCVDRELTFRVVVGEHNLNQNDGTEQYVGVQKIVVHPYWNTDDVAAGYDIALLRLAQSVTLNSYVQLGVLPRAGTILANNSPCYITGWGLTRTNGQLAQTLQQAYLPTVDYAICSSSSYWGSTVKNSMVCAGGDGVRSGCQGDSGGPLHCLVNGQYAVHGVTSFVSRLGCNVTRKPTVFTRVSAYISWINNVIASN
Procedure: as §1

MPO = target: T2, MPO (Homo sapiens, UniProt P05164); assay: Reaction of methoxy aniline derivative as substrate of MPO; assay type: biochemical
T2 sequence (P05164 49-745): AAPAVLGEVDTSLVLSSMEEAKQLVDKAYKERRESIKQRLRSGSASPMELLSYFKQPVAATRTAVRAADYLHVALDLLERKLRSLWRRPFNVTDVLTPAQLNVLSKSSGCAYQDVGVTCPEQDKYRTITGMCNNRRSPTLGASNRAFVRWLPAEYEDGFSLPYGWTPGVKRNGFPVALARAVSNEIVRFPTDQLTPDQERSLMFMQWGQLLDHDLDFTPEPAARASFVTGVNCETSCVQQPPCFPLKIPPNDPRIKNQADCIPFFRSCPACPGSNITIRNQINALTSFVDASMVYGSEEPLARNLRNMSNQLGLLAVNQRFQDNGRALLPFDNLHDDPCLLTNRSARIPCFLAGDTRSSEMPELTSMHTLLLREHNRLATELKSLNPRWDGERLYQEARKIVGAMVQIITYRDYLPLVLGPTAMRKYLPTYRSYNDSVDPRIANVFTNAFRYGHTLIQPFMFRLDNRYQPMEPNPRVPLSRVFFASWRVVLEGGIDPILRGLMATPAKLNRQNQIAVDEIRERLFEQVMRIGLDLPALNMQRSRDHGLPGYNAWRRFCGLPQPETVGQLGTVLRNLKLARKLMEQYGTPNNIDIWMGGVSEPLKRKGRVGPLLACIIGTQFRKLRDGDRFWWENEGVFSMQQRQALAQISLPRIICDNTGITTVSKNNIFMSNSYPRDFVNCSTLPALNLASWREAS
From the text: The ideal ratio by mass is circa 2:8 aniline: product of example 10. The most efficient reaction occurs when the divalent anion is sulphuric acid, however, disulfonic substituted aromatic systems and phosphoric acid can also be used with diminished rate. HC1 provides only limited reaction. On reaction, one of the products of MPO oxidation appears to be the dimer of the two aniline components (see FIG. 13).

elastase = assay: Treatment with elastase, released dye fragment found by MS-analysis (synthesis examples); assay type: biochemical; details: elastase species not stated
[3] = Color change of allyl sulfophthalein dyes with pH, base or ammonia; assay type: physicochemical

| Compound | release of dye fragment on treatment with elastase (elastase) | color change with pH / base / ammonia [3] | other results |
| --- | --- | --- | --- |
| 4-([4-{H-Ala-Ala-Pro-Val-Ala}amido N-piperazino]phenyl)-bis-(4-dimethyl-aminophenyl)-carbenium ion polyacrylamide (H-AAPVA-X5; also: polyacrylamide) [Example 71e] |  |  | release of A-CV on treatment with human elastase [1]: releases A-CV; release of A-CV on treatment with porcine elastase [2]: releases A-CV |
| CCCCCCCCCCCCC(O)CNc1cc(OC)c(NC(=O)c2ccccc2)cc1OC (racemic) [Example 10, N-(1-[2-Hydroxy]Tetradecanyl) Fast Blue RR (N-4-(1,3-Dimethoxy-2-N-Benzoylamidophenyl)-N′-Rac-(2-Hydroxy-n-Tetradecyl)-Amine)] |  |  | reaction as substrate of MPO (MPO): can be a direct substrate of MPO |
| CC(N)C(=O)NC(C)C(=O)N1CCCC1C(=O)NC(C(=O)NC(C)C(=O)N1CCN(c2ccc([C+](c3ccc(N(C)C)cc3)c3ccc(N(C)C)cc3)cc2)CC1)C(C)C (stereo not drawn) [Example 71, 4-([4-{H-Ala-Ala-Pro-Val-Ala}[SEQ ID NO: 28]amido N-piperazino]phenyl)-bis-(4-dimethyl-aminophenyl)-carbenium ion] (H-AAPVA-X9; configuration not given here) | released A-CV |  |  |
| C=CCOc1ccc(C2(c3ccc(O)c(Cl)c3)OS(=O)(=O)c3ccccc32)cc1Cl (centres unmarked) [Example 95, O-Allyl Chlorophenol Red] |  | no longer changed color with pH |  |
| Bis-(4-dimethylaminophenyl)-(4-[4-N-{6-N-valinoyl)aminohexanoyl}]piperazinophenyl)-carbenium ion [Example 72] | releases no Ahx-CV |  |  |
| C-Allyl Bromophenol Red [Example 97] |  | color changed with ammonia to violet |  |
| C-Allyl Chlorophenol Red [Example 96] |  | changed color when treated with base to deep violet |  |
| CMC 9M31F-AAPF-RBB [Example 55] | release of the dye |  |  |
| CMC 9M31F-AAPFA-RBB [Example 54] | release of the dye |  |  |
| Fmoc-AAPF-aminoethyl-(Remazol Black B)-(N′-acetyl)-ethylamide [Example 53] | yield the mono-acetylated-Remazol Black B-amino derivative |  |  |
